Assay results as given in publication PMC9879991, “Biomolecular condensates formed by designer minimalistic peptides” (Nature Communications, 2023).
Read-outs that look alike come from different tables or passages of the source. No end group written: not given here.

Experiments:
[1] = format: physicochemical; settings: for Apparent diffusion coefficient D, condensed phase (FRAP) / t1/2 of the FRAP recovery: 20 mM peptide, 0.5% FITC-labeled, tris pH 8, 0.2 M NaCl
Experimental: Next, we studied whether the peptide sequence affects the material properties of the resulting liquid droplets. For this, we performed FRAP analysis using laser scanning confocal microscopy of 0.5% FITC-labeled peptides. […] The apparent diffusion coefficient for each peptide was calculated as1 Dapp=r^2/t where t is the recovery time. The calculated apparent diffusion coefficients of the peptides were in the 1.7–5.5*10^−14 m^2 s^−1 range (Supplementary Table 1).
Fig. 3 Strength of intermolecular interactions affects peptide droplet dynamics. a–c FRAP analysis of WGR-1, WGR-3, WGR-4, and WGR-5, performed using laser scanning confocal microscopy at 20 mM in Tris buffer at pH 8 with 0.2 M NaCl using 0.5% FITC-labeled peptides. a Representative confocal microscopy images of FRAP for individual droplets. Scale bars = 5 μm. FRAP recovery plots (b), apparent diffusion coefficient (c), and t1/2 of the recovery (d). Data are presented as mean values +/− SD, n = 5 (WGR-1), 4 (WGR-3, WGR-4), and 5 (WGR-5). Source data are provided as a Source Data file.
FRAP experiments were performed by a Zeiss Zen 900 confocal microscope with ×20/0.8 NA Plan- Apochromat air objective. For each of the peptides, out of a total peptide concentration of 20 mM we used 0.5% FITC-labeled peptide, in tris buffer pH 8 with 0.2 M NaCl. A circular area with radius of 2.5 μm was bleached with a 488 nm laser 100% intensity at 10 iterations; subsequent recovery of the bleached area was recorded with a 488 nm laser. Monitoring of fluorescence recovery in the condensates was analyzed using Zen Blue 3.2 software (Zeiss). Photobleaching correction and recovery time were calculated using OriginLab 9.95. The final FRAP recovery curve is the average of recovery curves collected from n = 4–6 separate droplets.

[2] = Phase diagram in tris buffer: pH at which turbidity (LLPS) appears vs peptide concentration; format: physicochemical; settings: 0.2 M NaCl, room temperature; for pH at which turbidity (LLPS) appears: 20 mM tris, turbidity A500
Excerpt: We sought to design a library of LLPS-promoting peptide building blocks which form synthetic biomolecular condensates with tunable chemical composition and physical properties. We hypothesized that minimalistic variants of protein low complexity domains (LCDs) will self-assemble into liquid droplets through LLPS. Specifically, we envisioned that in order to keep the sequence length relatively short, the peptide composition should include high content of aromatic and basic amino acids that can interact through π–π or cation–π interactions. To test this hypothesis, we designed a primary sequence that contains various LLPS-promoting motifs. Inspired by LCDs of ribonucleoproteins (RNPs) and IDPs that are rich in arginine-glycine (RG) dyad or RGG triad repeats, we incorporated three repeats of an RG dyad (Fig. 1a), where glycine (Gly) provides flexibility and arginine (Arg) promotes electrostatic interactions with the terminal carboxylic group, cation- π or π interactions with aromatic amino acids (Fig. 1a). While both lysine (Lys) and Arg have basic side chain groups, the guanidine group of Arg delocalizes the charge due to the π bonded system and thus can promote more versatile binding modes compared to Lys, through cation–π and π–π interactions. Thus, considering that the Arg side chain can interact with side chains of aromatic amino acids, we incorporated tryptophan (Trp) and tyrosine (Tyr) into the peptide sequence at a 1:1 stoichiometry with Arg, with aromatic amino acids positioned at both ends of the sequence to enhance π–π stacking interactions. Finally, we considered the elastin-like polypeptide (ELP) repeating motif VPGXG. This pentapeptide sequence is a common LLPS-promoting motif used in engineered ordered/disordered polypeptides, where X can be any amino acid except proline (Pro), and a hydrophobic amino acid at this position promotes coacervation[39],[40]. […] Building on these previous findings, we incorporated the sequence WPGVG, thus obtaining the 14-mer peptide WGRGRGRGWPGVGY termed WGR-1 (Figs. 1a, 2a). WGR-1 forms droplets by self-coacervation at neutral pH in the presence of 0.2 M NaCl, which reduces the electrostatic repulsion of the basic peptide (Fig. 1b). We created a phase diagram of WGR-1 as a function of pH and peptide concentration in tris buffer by gradually increasing the pH and monitoring LLPS, as indicated by appearance of sample turbidity (Fig. 2b), where all experiments performed at room temperature. As expected, increasing peptide concentration decreased the pH in which visible turbidity and droplets are observed, where the critical LLPS concentration is 8 mM. To confirm that the turbidity is a result of LLPS and droplet formation rather than aggregation, we used bright field laser scanning confocal microscopy (Fig. 2c).
Fig. 2 Peptide sequence controls LLPS propensity and droplet formation. a Table of the designed peptide sequences. b Phase diagram of the peptides as a function of peptide concentration and pH, in tris buffer with 0.2 M NaCl, at room temperature. […] Source data are provided as a Source Data file. c Confocal microscopy bright field images of peptide liquid droplets formed at a concentration of 20 mM in Tris buffer at pH 8 with 0.2 M NaCl. Scale bars = 20 μm. Inset: macroscopic images of the peptide solutions. ‘Source data are provided as a Source Data file. TEXT PRINTED IN THE PICTURE: (b) WGR-1: LLPS | (b) WGR-2: No LLPS | (b) WGR-3: LLPS | (b) WGR-4: LLPS | (b) WGR-5: LLPS | (b) WGK: No LLPS DOUBTS OF THE COPYIST ABOUT THIS PICTURE: Panel b: "LLPS" / "No LLPS" are class labels printed inside the phase diagrams, with no numbers. In the diagrams with a curve, "LLPS" marks a region of the plot. / Panel c: the handwritten labels on the vials in the insets cannot be read with certainty and were left out. […]

[3] = FRAP of WGR-1 droplets, replicate 1

WGRGRGRGWPGVGY [WGR-1]
Apparent diffusion coefficient D, condensed phase (FRAP) ([1]; Dapp=r^2/t, mean of n=4-5 droplets): 4.58E-14 m^2 s^-1 | Apparent diffusion coefficient D, condensed phase (FRAP) ([1]; bleached radius 2.5 μm, droplet 1): 4.047e-14 m^2 s^-1 | t1/2 of the FRAP recovery ([1]; droplet 1): 37.1535 | t1/2 of the FRAP recovery ([1]; droplet 2): 29.5706 | t1/2 of the FRAP recovery ([1]; droplet 3): 25.8937 | t1/2 of the FRAP recovery ([1]; droplet 4): 27.3852 | t1/2 of the FRAP recovery ([1]; droplet 5): 32.7563 | x=t at y=0.5a (t1/2 of FRAP recovery) ([1]; FRAP of WGR-1 droplets, from fit, mean of 5 droplets (stdev 4.50361)): 30.5519 s | x=t at y=0.95a (time to 95% of plateau recovery) ([1]; FRAP of WGR-1 droplets, from fit, mean of 5 droplets (stdev 17.8362)): 138.34 s | x=t at y=0.5a (t1/2 of FRAP recovery) ([1]; FRAP of WGR-1 droplets, from fit, replicate 1): 37.1535 s | x=t at y=0.5a (t1/2 of FRAP recovery) ([1]; FRAP of WGR-1 droplets, from fit, replicate 2): 29.5706 s | x=t at y=0.5a (t1/2 of FRAP recovery) ([1]; FRAP of WGR-1 droplets, from fit, replicate 3): 25.8937 s | x=t at y=0.5a (t1/2 of FRAP recovery) ([1]; FRAP of WGR-1 droplets, from fit, replicate 4): 27.3852 s | x=t at y=0.5a (t1/2 of FRAP recovery) ([1]; FRAP of WGR-1 droplets, from fit, replicate 5): 32.7563 s | %recovery (mean of fitted plateau a of the FRAP recovery curves) ([1]; FRAP of WGR-1 droplets, normalized intensity fitted with parameters a, b, c, mean of 5 droplets (stdev 7.03086)): 78.6308% | D (apparent diffusion coefficient from FRAP), average ([1]; FRAP of WGR-1 droplets, average of 5 droplets (stdev 6.05E-15)): 4.58E-14 m^2 s^-1 | D (apparent diffusion coefficient from FRAP) [1, 3]: 4.05E-14 m^2 s^-1 | a (fitted plateau of normalized FRAP recovery) [1, 3]: 68.4582 | D condensed phase (FRAP), apparent diffusion coefficient ([1]; condensed phase, FRAP, mean, S.D. in next row): 4.52E-14 m^2/sec | pH at which turbidity (LLPS) appears ([2]; 8 mM peptide, mean of n=3): 8.483 | pH at which turbidity (LLPS) appears ([2]; 8 mM peptide, replicate 1): 8.43 | pH at which turbidity (LLPS) appears ([2]; 8 mM peptide, replicate 2): 8.47 | pH at which turbidity (LLPS) appears ([2]; 8 mM peptide, replicate 3): 8.55 | pH at which turbidity (LLPS) appears ([2]; 10 mM peptide, mean of n=3): 7.88 | pH at which turbidity (LLPS) appears ([2]; 10 mM peptide, replicate 1): 7.84 | pH at which turbidity (LLPS) appears ([2]; 10 mM peptide, replicate 2): 7.86 | pH at which turbidity (LLPS) appears ([2]; 10 mM peptide, replicate 3): 7.94 | pH at which turbidity (LLPS) appears ([2]; 15 mM peptide, mean of n=3): 7.483 | pH at which turbidity (LLPS) appears ([2]; 15 mM peptide, replicate 1): 7.45 | pH at which turbidity (LLPS) appears ([2]; 15 mM peptide, replicate 2): 7.51 | pH at which turbidity (LLPS) appears ([2]; 15 mM peptide, replicate 3): 7.49 | pH at which turbidity (LLPS) appears ([2]; 20 mM peptide, mean of n=3): 7.12 | pH at which turbidity (LLPS) appears ([2]; 20 mM peptide, replicate 1): 7.13 | pH at which turbidity (LLPS) appears ([2]; 20 mM peptide, replicate 2): 7.08 | pH at which turbidity (LLPS) appears ([2]; 20 mM peptide, replicate 3): 7.15 | pH at which turbidity (LLPS) appears ([2]; 30 mM peptide, mean of n=3): 6.85 | pH at which turbidity (LLPS) appears ([2]; 30 mM peptide, replicate 1): 6.82 | pH at which turbidity (LLPS) appears ([2]; 30 mM peptide, replicate 3): 6.88 | critical LLPS concentration ([2]; tris buffer, lowest of 5-30 mM at which turbidity/droplets form): 8 mM
